Holding throughout (type): biochemical
Experiment [1] concerns the target T1, papain (Carica papaya, UniProt P00784).
T1 sequence (P00784 134-345): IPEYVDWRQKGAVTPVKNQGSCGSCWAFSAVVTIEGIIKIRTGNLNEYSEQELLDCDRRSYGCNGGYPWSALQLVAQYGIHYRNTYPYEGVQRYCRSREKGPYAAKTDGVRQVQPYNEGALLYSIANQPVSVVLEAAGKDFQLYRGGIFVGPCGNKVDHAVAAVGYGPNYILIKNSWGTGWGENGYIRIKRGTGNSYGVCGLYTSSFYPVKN
Briefly: Thiol protease inhibitory activity, papain (P-3125, Sigma). On the procedure: (§1) Inhibitory activity against papain (P-3125, Sigma) and cathepsin B (C-6286, Sigma) was assayed according to the method described in a literature [Biochemical Journal, 201, 189 (1982)]. Cathepsin L was purified from rat kidney according to the method in a literature [Journal of Biochemistry, 100, 35 (1986)], and the inhibitory activity against it was assayed in the same manner as described in the above literature for cathepsin B. Furthermore, m-calpain was purified from rat brain according to a known method [Journal of Biological Chemistry, 254, p. 3210 (1984)] and the inhibitory activity against it was assayed by a method described in a literature [Journal of Biological Chemistry, 259, 12489 (1984)]. It is evident from Tables 3 and 4 that the compounds of the present invention have a potent inhibitory activity against thiol proteases such as papain, cathepsin B, cathepsin L or m-calpain.

In experiment [2] the target is T2, cathepsin B (Bos taurus, UniProt P07688).
T2 construct: purchased Sigma C-6286
Description: Thiol protease inhibitory activity, cathepsin B (C-6286, Sigma). Particulars: Table 3. On the procedure: as §1

For experiment [3], the target named is T3, cathepsin L (Rattus norvegicus, UniProt P07154).
T3 construct: Cathepsin L was purified from rat kidney; from tissue; host or cells: rat kidney
T3 sequence (P07154 114-334): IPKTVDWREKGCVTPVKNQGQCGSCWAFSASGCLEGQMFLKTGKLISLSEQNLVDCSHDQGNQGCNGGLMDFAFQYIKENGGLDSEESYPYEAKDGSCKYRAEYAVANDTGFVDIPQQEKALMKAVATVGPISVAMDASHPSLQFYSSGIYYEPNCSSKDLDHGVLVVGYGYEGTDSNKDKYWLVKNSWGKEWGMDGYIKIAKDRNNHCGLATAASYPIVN
Description: Thiol protease inhibitory activity, cathepsin L purified from rat kidney. Particulars: Table 3. As to the method:
as §1

Experiment [4] has as its target T4, m-calpain (Rattus norvegicus, UniProt Q07009).
T4 construct: m-calpain was purified from rat brain; from tissue; host or cells: rat brain
T4 sequence (Q07009 20-700 limits assumed): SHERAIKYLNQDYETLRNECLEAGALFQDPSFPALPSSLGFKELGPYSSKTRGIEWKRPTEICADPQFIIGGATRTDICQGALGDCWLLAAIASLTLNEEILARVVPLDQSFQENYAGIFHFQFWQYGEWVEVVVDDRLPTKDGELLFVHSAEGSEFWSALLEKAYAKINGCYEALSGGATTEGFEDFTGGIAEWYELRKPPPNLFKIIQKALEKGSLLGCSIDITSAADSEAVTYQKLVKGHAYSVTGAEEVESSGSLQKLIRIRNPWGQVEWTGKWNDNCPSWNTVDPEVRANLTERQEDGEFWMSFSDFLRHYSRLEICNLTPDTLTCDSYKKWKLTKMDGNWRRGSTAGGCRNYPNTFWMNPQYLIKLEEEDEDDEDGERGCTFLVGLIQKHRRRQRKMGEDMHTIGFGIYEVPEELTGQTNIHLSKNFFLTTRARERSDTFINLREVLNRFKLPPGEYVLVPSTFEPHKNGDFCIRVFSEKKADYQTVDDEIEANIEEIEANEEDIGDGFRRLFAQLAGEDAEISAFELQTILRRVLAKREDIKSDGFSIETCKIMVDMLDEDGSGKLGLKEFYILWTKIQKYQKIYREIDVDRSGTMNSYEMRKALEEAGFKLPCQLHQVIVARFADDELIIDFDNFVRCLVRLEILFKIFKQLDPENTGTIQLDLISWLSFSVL
T4 sequence (Q64537 1-270 partner): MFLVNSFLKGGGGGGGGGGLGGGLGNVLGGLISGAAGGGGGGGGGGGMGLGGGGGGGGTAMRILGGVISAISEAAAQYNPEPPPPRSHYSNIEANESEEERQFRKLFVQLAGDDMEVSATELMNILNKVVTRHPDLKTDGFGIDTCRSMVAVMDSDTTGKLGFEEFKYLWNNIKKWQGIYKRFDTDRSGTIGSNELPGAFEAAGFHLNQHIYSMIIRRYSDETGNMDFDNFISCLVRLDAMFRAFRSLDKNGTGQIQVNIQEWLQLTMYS
Description: Thiol protease inhibitory activity, m-calpain purified from rat brain. Particulars: Table 3. Put shortly:
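Papain and bovine cathepsin B assayed by a published method; cathepsin L purified from rat kidney and assayed in the same manner as cathepsin B. m-Calpain purified from rat brain and assayed by a separate published procedure.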

The IC50 is the concentration at which inhibition is half-maximal.

Structures are written as SMILES. Where two headings read alike, the source gives them in different places.

Turning to `CC(C)C[C@H](NC(=O)COc1ccccc1)C(=O)NC(Cc1cccc2ccccc12)C(=O)CSCc1ccco1` (stereo partly drawn) [209 (No. 555), l-furfurylthio-3-((s)-4-methyl-2-phenoxyacetylaminovalerylamino)-4-(1-naphtyl)-2-butanone], the IC50 stood at 9 µM in experiment [1] (Table 3, read-out: IC50 papain); 6.5 µM in experiment [2]; 1.5 µM in experiment [3]; 19 µM in experiment [4].
On the same counts, the results for `CC(C)C[C@H](NC(=O)OCc1ccccc1)C(=O)N[C@@H](CCC(=O)O)C(=O)CSCc1ccco1` [217 (No. 600), (s)-4-((s)-2-benzyloxycarbonylamino-4-methylvalerylamino)-6-furfurylthio-5-oxohexanoic Acid] are 26 µM, 2.5 µM, 11 µM and 19 µM.
As to `CCCC[C@H](NC(=O)[C@H](CC(C)C)NC(=O)COc1cccc(F)c1)C(=O)CSCc1ccco1` [37 (No. 86), (s)-3-[(s)-2-(3-fluorophenoxyacetylamino)-4-methylvalerylamino]-1-furfurylthio-2-heptanone], the IC50 in experiment [1] (Table 3, read-out: IC50 papain) was found to be 1.3 µM; in experiment [2], 0.7 µM; in experiment [3], 0.45 µM; in experiment [4], 15 µM.
For `CCCC[C@H](NC(=O)[C@H](CC(C)C)NC(=O)OCc1ccccc1F)C(=O)CSCc1ccco1` [23 (No. 49), (s)-3-[(s)-2-(2-fluorobenzyloxycarbonylamino)-4-methylvalerylamino]-1-furfurylthio-2-heptanone], the IC50 in experiment [1] (Table 3, read-out: IC50 papain) was determined as 22 µM; in experiment [2], 3.7 µM; in experiment [3], 1.1 µM; in experiment [4] it was 6.4 µM.
Regarding `CC(C)C[C@H](NC(=O)COc1ccccc1)C(=O)N[C@@H](CC1CCCCC1)C(=O)CSCc1ccco1` [110 (No. 240), (s)-4-cyclohexyl-1-furfurylthio-3-((s)-4-methyl-2-phenoxyacetylaminovalerylamino)-2-butanone], the IC50 in experiment [1] was determined as 21 µM; in experiment [2] it was 3.3 µM; in experiment [3], 0.98 µM; in experiment [4], 6 µM.
Regarding `CC(C)C[C@H](NC(=O)C(C)Oc1ccccc1)C(=O)N[C@@H](Cc1ccccc1)C(=O)CSCc1ccco1` (stereo partly drawn) [165 (No. 349), (s)-1-furfurylthio-3-[(s)-4-methyl-2-(2-phenoxypropionylamino)valerylamino]-4-phenyl-2-butanone], the IC50 in experiment [1] (Table 3, read-out: IC50 papain) was found to be 9.2 µM; in experiment [2] it was 7 µM; in experiment [3], 1.9 µM; in experiment [4] it was 13 µM.
Take `CCCC[C@H](NC(=O)[C@H](CC(C)C)NC(=O)COc1ccc(F)cc1)C(=O)CSCc1ccco1` [38 (No. 87), (s)-3-[(s)-2-(4-fluorophenoxyacetylamino)-4-methylvalerylamino]-1-furfurylthio-2-heptanone]: the IC50 in experiment [1] (Table 3, read-out: IC50 papain) is 0.42 µM; in experiment [2], 0.62 µM; in experiment [3], 0.72 µM; in experiment [4], 5 µM.
As for `CC(C)C[C@H](NC(=O)OCc1ccccc1)C(=O)N[C@@H](CC1CCCCC1)C(=O)CSCc1ccco1` [109 (No. 238), (s)-3-((s)-2-benzyloxycarbonylamino-4-methylvalerylamino)-4-cyclohexyl-1-furfurylthio-2-butanone], the IC50 was 4.2 µM in experiment [1] (Table 3, read-out: IC50 papain); 1.1 µM in experiment [2]; 1.2 µM in experiment [3]; 13 µM in experiment [4].
For `CCCC[C@H](NC(=O)[C@H](CC(C)C)NC(=O)COC1CCCCC1)C(=O)CSCc1ccco1` [35 (No. 81), (s)-3-((s)-2-cyclohexyloxyacetylamino-4-methylvalerylamino)-1-furfurylthio-2-heptanone], the IC50 was 0.21 µM in experiment [1] (Table 3, read-out: IC50 papain); 0.7 µM in experiment [2]; 1.1 µM in experiment [3]; 8.6 µM in experiment [4].
For `CCCC[C@H](NC(=O)[C@H](CC(C)C)NC(=O)COc1ccc2ccccc2c1)C(=O)CSCc1ccco1` [53 (No. 115), (s)-1-furfurylthio-3-[(s)-4-methyl-2-(2-naphtoxyacetylamino)valerylamino]-2-heptanone], the IC50 turned out to be 9.2 µM in experiment [1] (Table 3, read-out: IC50 papain); 11 µM in experiment [2]; 1.5 µM in experiment [3]; 6.2 µM in experiment [4].
Turning to `CCCC[C@H](NC(=O)[C@H](CC(C)C)NC(=O)c1ccc2ccccc2c1)C(=O)CSCc1ccco1` [82 (No. 162), (s)-1-furfurylthio-3-[(s)-4-methyl-2-(2-naphtoylamino)valerylamino]-2-heptanone], the IC50 in experiment [1] (Table 3, read-out: IC50 papain) came to 34 µM; in experiment [2], 2.7 µM; in experiment [3], 0.32 µM; in experiment [4] it was 20 µM.
On to `CC(C)C[C@H](NC(=O)OCc1ccccn1)C(=O)N[C@@H](Cc1ccccc1)C(=O)CSCc1ccco1` [150 (No. 313), (s)-1-furfurylthio-3-[(s)-4-methyl-2-(2-pyridylmethoxycarbonylamino)valerylamino]-4-phenyl-2-butanone], for which the concentration for half-maximal inhibition (IC50) in experiment [1] (Table 3, read-out: IC50 papain) stood at 91 µM; in experiment [2], 1.1 µM; in experiment [3], 0.27 µM; in experiment [4], 5.4 µM.
Take `CCCC[C@H](NC(=O)[C@H](CC(C)C)NC(=O)COc1ccc(Cl)cc1Cl)C(=O)CSCc1ccco1` [42 (No. 92), (s)-3-[(s)-2-(2,4-dichlorophenoxyacetylamino)-4-methylvalerylamino]-1-furfurylthio-2-heptanone]: the IC50 was found to be 4.5 µM in experiment [1] (Table 3, read-out: IC50 papain); 1.9 µM in experiment [2]; 0.74 µM in experiment [3]; 23 µM in experiment [4].
On the same counts, the results for `CSCC(=O)[C@H](Cc1ccccc1)NC(=O)[C@H](CC(C)C)NC(=O)Cc1cccc2ccccc12` [120 (No. 256), (s)-3-[(s)-4-methyl-2-(1-naphtylacetylamino)valerylamino]-1-methylthio-4-phenyl-2-butanone] are 56 µM, 3.9 µM, 0.49 µM and 26 µM.
As to `CCCC[C@H](NC(=O)[C@H](CC(C)C)NC(=O)COc1ccccc1)C(=O)C[S+]([O-])Cc1ccco1` (stereo partly drawn) [4 (No. 83), (s)-1-furfurylsulfinyl-3-((s)-4-methyl-2-phenoxyacetylaminovalerylamino)-2-heptanone], the IC50 was determined as 0.21 µM in experiment [1], 0.044 µM in experiment [2], 0.045 µM in experiment [3] and 12 µM in experiment [4].
Regarding `CCCC[C@H](NC(=O)[C@H](CC(C)C)NC(=O)c1ccccc1)C(=O)CSCc1ccco1` [54 (No. 116), (s)-3-((s)-2-benzoylamino-4-methylvalerylamino)-1-furfurylthio-2-heptanone], the IC50 is 0.38 µM in experiment [1] (Table 3, read-out: IC50 papain); 0.88 µM in experiment [2]; 0.25 µM in experiment [3]; 14 µM in experiment [4].
On to `CCCC[C@H](NC(=O)[C@H](CC(C)C)NC(=O)COc1ccc(Cl)cc1)C(=O)CSCc1ccco1` [40 (No. 90), (s)-3-[(s)-2-(4-chlorophenoxyacetylamino)-4-methylvalerylamino]-1-furfurylthio-2-heptanone], for which the 50% inhibitory concentration (IC50) in experiment [1] (Table 3, read-out: IC50 papain) is 2.1 µM; in experiment [2] it was 0.27 µM; in experiment [3], 0.85 µM; in experiment [4], 8.4 µM.
As to `CCCC[C@H](NC(=O)[C@H](CC(C)C)NC(=O)c1cc2ccccc2o1)C(=O)CSCc1ccco1` [91 (No. 180), (s)-3-[(s)-2-(2-benzofuranylcarbonylamino)-4-methylvalerylamino]-1-furfurylthio-2-heptanone], the IC50 was found to be 0.16 µM in experiment [1] (Table 3, read-out: IC50 papain); 0.05 µM in experiment [2]; 0.069 µM in experiment [3]; 14 µM in experiment [4].
